According to US8501940B2, “Tetrahydrocinnoline derivatives” (Hoffmann-La Roche Inc., priority 2008, dated 2013):

target: T1, human 11beta-HSD1 (Homo sapiens, UniProt P28845); test: Microsome assay (cortisone to cortisol conversion, ELISA detection); format: biochemical; details: microsomes from HEK293 cells transiently expressing human 11beta-HSD1; Cortisone 50-200 nM, NADPH 1 mM; 60 min at 37° C.; cortisol by ELISA; read-out: h 11-beta-HSD 1 IC50
T1 construct: made in house; host or cells: HEK293 cells (ATCC CRL-1573), transient transfection with a pcDNA3 construct; microsomal fraction used
Procedure: The cDNA encoding the human 11beta-HSD1 protein was cloned into the expression vector pcDNA3 (Stratagene). This construct (for details see Alex Odermatt et al.; J Biol Chem., 1999, Vol. 274, Issue 40, 28762-28770) was used to transiently express the protein in HEK293 cells (ATCC number: CRL-1573, described in Graham, F. L., Smiley, J., Russell, W. C., Nairn, R.; (1977)) using lipofectamine. 48 h after transfection cells were washed twice with ice-cold PBS (Phosphate buffered Saline). To 1 volume of cell suspension in PBS 2 volumes of ice-cold lysis buffer (50 mM Tris; pH7.5; 1 mM EDTA; 100 mM NaCl) were added. The cells were lysed by Potter-homogenization (20 strokes). The resulting homogenate was sonicated with a tip sonicator (10% output; 2×30 sec.) and cleared by a low speed centrifugation (10 min×9000 g; 4° C.). The microsomal fraction was collected by a high speed centrifugation (60 min×110,000 g). The resulting pellet was resuspended in storage buffer (20 mM Tris pH 7.5; 1 mM EDTA; 10% Glycerol) and the centrifugation was repeated. The resulting pellet containing the microsomal fraction was again taken up into storage buffer and aliquots were kept frozen in liquid Nitrogen until use.
Microsomes isolated from HEK293 cells transiently expressing human 11beta-HSD1 (for details see above) were incubated in assay buffer (100 mM NaCl; 1 mM EDTA; 1 mM EGTA; 1 mM MgCl; 250 mM Sucrose; 20 mM Tris pH 7.4; Cortisone 50-200 nM and NADPH 1 mM) together with different concentrations of test substances. After 60 min. of incubation at 37° C. the assay was stopped by heating to 80° C. (5 min.) and by addition of the inhibitor Carbenoxolone (1 uM). The amount of Cortisol produced in this assay was determined using a commercially available, ELISA-based Cortisol-detection kit (Distributed by Assay Design, Inc.). Inhibitors were characterized by there IC50 values, e.g. the concentration at which the production of cortisol was 50% reduced.

T1 sequence (P28845 whole entry): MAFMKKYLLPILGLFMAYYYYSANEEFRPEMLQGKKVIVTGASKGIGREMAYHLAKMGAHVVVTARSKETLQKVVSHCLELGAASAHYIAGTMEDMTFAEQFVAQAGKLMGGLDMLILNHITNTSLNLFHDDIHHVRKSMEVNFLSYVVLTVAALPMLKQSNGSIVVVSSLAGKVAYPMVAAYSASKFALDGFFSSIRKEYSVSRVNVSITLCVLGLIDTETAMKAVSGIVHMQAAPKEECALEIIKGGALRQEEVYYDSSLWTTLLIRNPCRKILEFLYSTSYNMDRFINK

IC50 | SMILES
1 pM | CC1(Cc2cc3c(nn2)[C@H]2CC[C@@H]3C2(C)C)CC1 (racemic) [Example 16, (5RS,8SR)-9,9-dimethyl-3-[(1-methylcyclopropyl)methyl]-5,6,7,8-tetrahydro-5,8-methanocinnoline]
37 pM | CC1(Cc2cc3c(nn2)[C@H]2CC[C@@H]3C2)CC1 (racemic) [Example 18, (5RS,8SR)-3-[(1-methylcyclopropyl)methyl]-5,6,7,8-tetrahydro-5,8-methanocinnoline]
1 pM | CC(C)(C)Cc1cc2c(nn1)C1CCC2C12CC2 (single isomer, unassigned) [Example 1b, (5′S,8′R)-3′-(2,2-dimethylpropyl)-5′,6′,7′,8′-tetrahydrospiro[cyclopropane-1,9′-[1′,2′]diaza[5′,8′]methanocinnoline]]
11 pM | CC(C)(C)c1cc2c(nn1)C1CCC2C12CC2 (single isomer, unassigned) [Example 2a, (5′R,8′S)-3′-tert-butyl-5′,6′,7′,8′-tetrahydrospiro[cyclopropane-1,9′-[1′,2′]diaza[5′,8′]methanocinnoline]]
13 pM | CC(C)(C)c1cc2c(nn1)C1CCC2C12CC2 (single isomer, unassigned) [Example 2b, (5′S,8′R)-3′-tert-butyl-5′,6′,7′,8′-tetrahydrospiro[cyclopropane-1,9′-[1′,2′]diaza[5′,8′]methanocinnoline]]
566 pM | c1c(C2CC2)nnc2c1C1CCC2C12CC2 (single isomer, unassigned) [Example 5a, (5′R,8′S)-3′-cyclopropyl-5′,6′,7′,8′-tetrahydrospiro[cyclopropane-1,9′-[1′,2′]diaza[5′,8′]methanocinnoline]]
3 pM | CC(C)(C)Cc1cc2c(nn1)C1CCC2C12CC2 (stereo not drawn) [Example 1, (5′RS,8′SR)-3′-(2,2-dimethylpropyl)-5′,6′,7′,8′-tetrahydrospiro[cyclopropane-1,9′-[1′,2′]diaza[5′,8′]methanocinnoline]]
4 pM | CC(C)(C)Cc1cc2c(nn1)[C@H]1CC[C@@H]2C12CC2 [Example 1a, (5′R,8′S)-3′-(2,2-dimethylpropyl)-5′,6′,7′,8′-tetrahydrospiro[cyclopropane-1,9′-[1′,2′]diaza[5′,8′]methanocinnoline]]
20 pM | CC(C)(C)c1cc2c(nn1)C1CCC2C12CC2 (stereo not drawn) [Example 2, (5′RS,8′SR)-3′-tert-butyl-5′,6′,7′,8′-tetrahydrospiro[cyclopropane-1,9′-[1′,2′]diaza[5′,8′]methanocinnoline]]
6 pM | CC1(Cc2cc3c(nn2)C2CCC3C23CC3)CC1 (stereo not drawn) [Example 3, (5′RS,8′SR)-3′-[(1-methylcyclopropyl)methyl]-5′,6′,7′,8′-tetrahydrospiro[cyclopropane-1,9′-[1′,2′]diaza[5′,8′]methanocinnoline]]
58 pM | CC1(c2cc3c(nn2)C2CCC3C23CC3)CC1 (stereo not drawn) [Example 4, (5′RS,8′SR)-3′-(1-methylcyclopropyl)-5′,6′,7′,8′-tetrahydrospiro[cyclopropane-1,9′-[1′,2′]diaza[5′,8′]methanocinnoline]]
603 pM | c1c(C2CC2)nnc2c1C1CCC2C12CC2 (stereo not drawn) [Example 5, (5′RS,8′SR)-3′-cyclopropyl-5′,6′,7′,8′-tetrahydrospiro[cyclopropane-1,9′-[1′,2′]diaza[5′,8′]methanocinnoline]]
382 pM | c1c(C2CC2)nnc2c1[C@H]1CC[C@@H]2C12CC2 [Example 5b, (5′S,8′R)-3′-cyclopropyl-5′,6′,7′,8′-tetrahydrospiro[cyclopropane-1,9′-[1′,2′]diaza[5′,8′]methanocinnoline]]
35 pM | Cc1c(C2CC2)nnc2c1C1CCC2C12CC2 (stereo not drawn) [Example 6, (5′RS,8′SR)-3′-cyclopropyl-4′-methyl-5′,6′,7′,8′-tetrahydrospiro[cyclopropane-1,9′-[1′,2′]diaza[5′,8′]methanocinnoline]]
47 pM | c1c(C2CC2)nnc2c1C1CCC2CC1 [Example 7, 3-Cyclopropyl-5,6,7,8-tetrahydro-5,8-ethanocinnoline]
6 pM | CC1(Cc2cc3c(nn2)C2CCC3CC2)CC1 [Example 8, 3-[(1-Methylcyclopropyl)methyl]-5,6,7,8-tetrahydro-5,8-ethanocinnoline]
1 pM | CC(C)(C)Cc1cc2c(nn1)C1CCC2CC1 [Example 9, 3-(2,2-Dimethylpropyl)-5,6,7,8-tetrahydro-5,8-ethanocinnoline]
2 pM | CC(C)(C)c1cc2c(nn1)C1CCC2CC1 [Example 10, 3-Tert-butyl-5,6,7,8-tetrahydro-5,8-ethanocinnoline]
2 pM | CC1(c2cc3c(nn2)C2CCC3C23CCCC3)CC1 (stereo not drawn) [Example 11, (5′RS,8′SR)-3′-(1-methylcyclopropyl)-5′,6′,7′,8′-tetrahydrospiro[cyclopentane-1,9′-[1′,2′]diaza[5′,8′]methanocinnoline]]
1 pM | CC1(Cc2cc3c(nn2)C2CCC3C23CCCC3)CC1 (stereo not drawn) [Example 12, (5′RS,8′SR)-3′-[(1-methylcyclopropyl)methyl]-5′,6′,7′,8′-tetrahydrospiro[cyclopentane-1,9′-[1′,2′]diaza[5′,8′]methanocinnoline]]
1 pM | CC(C)(C)Cc1cc2c(nn1)C1CCC2C12CCCC2 (stereo not drawn) [Example 13, (5′RS,8′SR)-3′-(2,2-dimethylpropyl)-5′,6′,7′,8′-tetrahydrospiro[cyclopentane-1,9′-[1′,2′]diaza[5′,8′]methanocinnoline]]
2 pM | CC(C)(C)c1cc2c(nn1)C1CCC2C12CCCC2 (stereo not drawn) [Example 14, (5′RS,8′SR)-3′-tert-butyl-5′,6′,7′,8′-tetrahydrospiro[cyclopentane-1,9′-[1′,2′]diaza[5′,8′]methanocinnoline]]
13 pM | c1c(C2CC2)nnc2c1C1CCC2C12CCCC2 (stereo not drawn) [Example 15, (5′RS,8′SR)-3′-cyclopropyl-5′,6′,7′,8′-tetrahydrospiro[cyclopentane-1,9′-[1′,2′]diaza[5′,8′]methanocinnoline]]
1 pM | CC1(Cc2cc3c(nn2)[C@@]2(C)CC[C@@H]3C2(C)C)CC1 [Example 17, (5R,8S)-8,9,9-trimethyl-3-[(1-methylcyclopropyl)methyl]-5,6,7,8-tetrahydro-5,8-methanocinnoline]
2 pM | Fc1ccc(-c2cc3c(nn2)C2CCC3C23CC3)c(C(F)(F)F)c1 (stereo not drawn) [Example 19, (5′RS,8′SR)-3′-[4-fluoro-2-(trifluoromethyl)phenyl]-5′,6′,7′,8′-tetrahydrospiro[cyclopropane-1,9′-[1′,2′]diaza[5′,8′]methanocinnoline]]
89 pM | Cc1c(-c2cc3c(nn2)C2CCC3C23CC3)cnn1-c1ccccc1 (stereo not drawn) [Example 20, (5′RS,8′SR)-3′-(5-methyl-1-phenyl-1H-pyrazol-4-yl)-5′,6′,7′,8′-tetrahydrospiro[cyclopropane-1,9′-[1′,2′]diaza[5′,8′]methanocinnoline]]
7 pM | Fc1ccc(-c2cc3c(nn2)C2CCC3C23CC3)c(Cl)c1 (stereo not drawn) [Example 21, (5′RS,8′SR)-3′-(2-chloro-4-fluorophenyl)-5′,6′,7′,8′-tetrahydrospiro[cyclopropane-1,9′-[1′,2′]diaza[5′,8′]methanocinnoline]]
1 pM | FC(F)(F)c1ccccc1-c1cc2c(nn1)C1CCC2C12CC2 (stereo not drawn) [Example 22, (5′RS,8′SR)-3′-[2-(trifluoromethyl)phenyl]-5′,6′,7′,8′-tetrahydrospiro[cyclopropane-1,9′-[1′,2′]diaza[5′,8′]methanocinnoline]]
